Experimental data published in ChEMBL document CHEMBL6120978, “Anticancer activity of salinomycin quaternary phosphonium salts” (Eur J Med Chem, 2025).
Values after ≈ are worked out from the molar mass of the structure shown. Active and inactive are the calls of the source. The rule behind the calls is not given here.

Tests used:
[1] = test system: Staphylococcus epidermidis; test: Antimicrobial activity against Staphylococcus epidermidis ATCC 35984 incubated for 18 hrs by twofold microdilution method; format: functional
[2] = Selectivity index, ratio of IC50 for cytotoxicity against chinese hamster V79 cells to IC50 for cytotoxicity against human PC-3 cells; format: toxicity, cell-based; details: V79 cells versus PC-3 cells, read-out: Ratio IC50
[3] = Selectivity index, ratio of IC50 for cytotoxicity against chinese hamster V79 cells to IC50 for cytotoxicity against human A549 cells; format: toxicity, cell-based; details: V79 cells versus A549 cells, read-out: Ratio IC50
A549 [4] = test: Effect on mitochondrial mass in human A549 cells assessed as increase in mean fluorescence intensity at IC50 incubated for 48 hrs by MitoTracker Green FM staining based flow cytometry analysis; format: functional, cell-based
MDA-MB-231 [5] = test: Induction of apoptosis in human MDA-MB-231 cells assessed as necrotic cells at IC50 incubated for 72 hrs by Annexin V-FITC staining based flow cytometry analysis (reference value: 1.17 %); format: functional
[6] = Selectivity index, ratio of IC50 for cytotoxicity against human HaCaT cells to IC50 for cytotoxicity against human SW620 cells; format: toxicity, cell-based; details: HaCaT cells versus SW620 cells, read-out: Ratio IC50
Mitochondrial membrane [7] = test: Induction of mitochondrial membrane potential loss in human A549 cells assessed as green fluorescence at IC50 incubated for 48 hrs MitoTracker Green FM staining based flow cytometry analysis (reference value: 8.93 %); format: cell membranes
A549 [8] = test: Cytotoxicity against human A549 cells incubated for 72 hrs by MTT assay; format: functional, cell-based; details: A549, 72 h
[9] = Cytotoxicity against human HaCaT cells incubated for 72 hrs by MTT assay; format: toxicity, cell-based
Mitochondrial membrane [10] = test: Induction of mitochondrial membrane potential loss in human MDA-MB-231 cells assessed as green fluorescence at IC50 incubated for 48 hrs MitoTracker Green FM staining based flow cytometry analysis (reference value: 8.86 %); format: cell membranes
MDA-MB-231 [11] = test: Induction of apoptosis in human MDA-MB-231 cells assessed as late apoptotic cells at IC50 incubated for 72 hrs by Annexin V-FITC staining based flow cytometry analysis (reference value: 3.07 %); format: functional
A549 [12] = test: Induction of apoptosis in human A549 cells assessed as early apoptotic cells at IC50 incubated for 72 hrs by Annexin V-FITC staining based flow cytometry analysis (reference value: 1.68 %); format: functional
A549 [13] = test: Induction of mitochondrial respiration in human A549 cells assessed as oxygen consumption rate at 0.1 to 10 uM by Oxygraph-2K system; format: functional, cell-based; details: dose 0.1-10 µM
SW-620 = test: Cytotoxicity against human SW620 cells incubated for 72 hrs by MTT assay; format: functional, cell-based; details: SW-620, 72 h
A549 [14] = test: Effect on mitochondrial function in human A549 cells assessed as change in mean fluorescence intensity at IC50 incubated for 48 hrs by MitoTracker Red CMXRos staining based flow cytometry analysis; format: functional, cell-based
A549 [15] = test: Induction of apoptosis in human A549 cells assessed as late apoptotic cells at IC50 incubated for 72 hrs by Annexin V-FITC staining based flow cytometry analysis (reference value: 1.86 %); format: functional
Staphylococcus aureus [16] = test: Antimicrobial activity against Staphylococcus aureus ATCC 25923 incubated for 18 hrs by twofold microdilution method; format: functional
Lipid bilayer [17] = test: Induction of ionic transport in azolectin bilayer membrane assessed as irregular disturbance in membrane permeability in presence of HEPES buffer by electrophysiology technique
Pseudomonas aeruginosa = test: Antimicrobial activity against Pseudomonas aeruginosa ATCC 15442 incubated for 18 hrs by twofold microdilution method; format: functional
MDA-MB-231 [18] = test: Cytotoxicity against human MDA-MB-231 cells incubated for 72 hrs by MTT assay; format: functional, cell-based; details: MDA-MB-231, 72 h
MDA-MB-231 [19] = test: Induction of cell cycle arrest in human MDA-MB-231 cells assessed as inhibition of cell division at IC50 incubated for 24 hrs by propidium iodide staining based flow cytometry analysis; format: functional
Mitochondrial membrane [20] = test: Induction of mitochondrial membrane potential loss in human MDA-MB-231 cells assessed as red fluorescence at IC50 incubated for 48 hrs MitoTrackerRed CMXRos staining based flow cytometry analysis (reference value: 91.1 %); format: cell membranes
MDA-MB-231 [21] = test: Induction of apoptosis in human MDA-MB-231 cells assessed as early apoptotic cells at IC50 incubated for 72 hrs by Annexin V-FITC staining based flow cytometry analysis (reference value: 4.23 %); format: functional
PC-3 = test: Cytotoxicity against human PC-3 cells incubated for 72 hrs by MTT assay; format: functional, cell-based; details: PC-3, 72 h
[22] = Cytotoxicity against chinese hamster V79 cells incubated for 72 hrs by MTT assay; format: toxicity, cell-based, Cricetulus griseus
A549 [23] = test: Induction of ROS generation of human A549 cells at IC50 incubated for 6 hrs by CellROX Green staining based spectrofluorometer analysis; format: functional, cell-based
[24] = Selectivity index, ratio of IC50 for cytotoxicity against chinese hamster V79 cells to IC50 for cytotoxicity against human SW620 cells; format: toxicity, cell-based; details: V79 cells versus SW620 cells, read-out: Ratio IC50
Mitochondrial membrane [25] = test: Induction of mitochondrial membrane potential loss in human A549 cells assessed as red fluorescence at IC50 incubated for 48 hrs MitoTrackerRed CMXRos staining based flow cytometry analysis (reference value: 91.1 %); format: cell membranes
Lipid bilayer [26] = test: Induction of ionic transport in azolectin bilayer membrane assessed as membrane rupture in presence of HEPES buffer by electrophysiology technique
[27] = Selectivity index, ratio of IC50 for cytotoxicity against human HaCaT cells to IC50 for cytotoxicity against human SW480 cells; format: toxicity, cell-based; details: HaCaT cells versus SW480 cells, read-out: Ratio IC50
[28] = Selectivity index, ratio of IC50 for cytotoxicity against human HaCaT cells to IC50 for cytotoxicity against human A549 cells; format: toxicity, cell-based; details: HaCaT cells versus A549 cells, read-out: Ratio IC50
[29] = test system: Staphylococcus epidermidis; test: Antimicrobial activity against Staphylococcus epidermidis ATCC 12228 incubated for 18 hrs by twofold microdilution method; format: functional
MDA-MB-231 [30] = test: Induction of ROS generation of human MDA-MB-231 cells at IC50 incubated for 6 hrs by CellROX Green staining based spectrofluorometer analysis; format: functional, cell-based
SW480 = test: Cytotoxicity against human SW480 cells incubated for 72 hrs by MTT assay; format: functional, cell-based; details: SW480, 72 h
Staphylococcus aureus [31] = test: Antimicrobial activity against Staphylococcus aureus ATCC 29213 incubated for 18 hrs by twofold microdilution method; format: functional
[32] = Selectivity index, ratio of IC50 for cytotoxicity against human HaCaT cells to IC50 for cytotoxicity against human PC-3 cells; format: toxicity, cell-based; details: HaCaT cells versus PC-3 cells, read-out: Ratio IC50
A549 [33] = test: Induction of apoptosis in human A549 cells assessed as necrotic cells at IC50 incubated for 72 hrs by Annexin V-FITC staining based flow cytometry analysis (reference value: 0.97 %); format: functional
MDA-MB-231 [34] = test: Effect on mitochondrial mass in human MDA-MB-231 cells assessed as increase in mean fluorescence intensity at IC50 incubated for 48 hrs by MitoTracker Green FM staining based flow cytometry analysis; format: functional, cell-based
Lipid bilayer [35] = test: Induction of current generation in azolectin bilayer membrane upto 10 uM in presence of HEPES buffer by electrophysiology technique; format: cell membranes
Lipid bilayer [36] = test: Induction of ionic transport in azolectin bilayer membrane assessed as specific channel-like structure formation in presence of HEPES buffer by electrophysiology technique
Staphylococcus aureus [37] = test: Antimicrobial activity against Staphylococcus aureus ATCC 6538 incubated for 18 hrs by twofold microdilution method; format: functional
[38] = Selectivity index, ratio of IC50 for cytotoxicity against human HaCaT cells to IC50 for cytotoxicity against human MDA-MB-231 cells; format: toxicity, cell-based; details: HaCaT cells versus MDA-MB-231 cells, read-out: Ratio IC50
[39] = Selectivity index, ratio of IC50 for cytotoxicity against chinese hamster V79 cells to IC50 for cytotoxicity against human SW480 cells; format: toxicity, cell-based; details: V79 cells versus SW480 cells, read-out: Ratio IC50
[40] = Selectivity index, ratio of IC50 for cytotoxicity against chinese hamster V79 cells to IC50 for cytotoxicity against human MDA-MB-231 cells; format: toxicity, cell-based; details: V79 cells versus MDA-MB-231 cells, read-out: Ratio IC50
A549 [41] = test: Induction of apoptosis in human A549 cells assessed as viable cells at IC50 incubated for 72 hrs by Annexin V-FITC staining based flow cytometry analysis (reference value: 95.49 %); format: functional
MDA-MB-231 [42] = test: Induction of apoptosis in human MDA-MB-231 cells assessed as viable cells at IC50 incubated for 72 hrs by Annexin V-FITC staining based flow cytometry analysis (reference value: 91.53 %); format: functional
Staphylococcus aureus [43] = test: Antimicrobial activity against Staphylococcus aureus NCTC 4163 incubated for 18 hrs by twofold microdilution method; format: functional
Escherichia coli = test: Antimicrobial activity against Escherichia coli ATCC 25922 incubated for 18 hrs by twofold microdilution method; format: functional

## CC[C@@H](C(=O)[C@@H](C)[C@@H](O)[C@H](C)[C@@H]1O[C@@H]([C@@H](CC)C(=O)O)CC[C@@H]1C)[C@H]1O[C@]2(C=C[C@@H](O)[C@]3(CC[C@@](C)([C@H]4CC[C@](O)(CC)[C@H](C)O4)O3)O2)[C@H](C)C[C@@H]1C [SALINOMYCIN]
[1]
  MIC: 1 µg/mL (≈ 1.33 µM)
[2]
  selectivity ratio: 0.5
[3]
  selectivity ratio: 0.8
A549 [4]
  Activity: Active; Slight Increase In Mfi Is Observed
MDA-MB-231 [5]
  Activity: 2.97%
[6]
  selectivity ratio: 0.4
Mitochondrial membrane [7]
  Activity: 18.8%
A549 [8]
  IC50: 1860 nM
[9]
  IC50 at 72 h: 800 nM
Mitochondrial membrane [10]
  Activity: 23.4%
MDA-MB-231 [11]
  Activity: 11.49%
A549 [12]
  Activity: 9.72%
A549 [13]
  Activity: inactive
SW-620
  IC50: 1810 nM
A549 [14]
  Activity: inactive
A549 [15]
  Activity: 2.05%
Staphylococcus aureus [16]
  MIC: 0.5 µg/mL (≈ 0.666 µM)
Lipid bilayer [17]
  Activity: inactive
Pseudomonas aeruginosa
  MIC: > 256 µg/mL
MDA-MB-231 [18]
  IC50: 1220 nM
MDA-MB-231 [19]
  Activity: Active
Mitochondrial membrane [20]
  Activity: 76.7%
MDA-MB-231 [21]
  Activity: 8.6%
PC-3
  IC50: 3000 nM
[22]
  IC50 at 72 h: 1440 nM
A549 [23]
  Activity: Active; Slight Insignificant Increase In Ros Level Was Observed
[24]
  selectivity ratio: 0.8
Mitochondrial membrane [25]
  Activity: 91.2%
Lipid bilayer [26]
  Activity: inactive
[27]
  selectivity ratio: 0.6
[28]
  selectivity ratio: 0.4
[29]
  MIC: 0.5 µg/mL (≈ 0.666 µM)
MDA-MB-231 [30]
  Activity: Active; Slight Insignificant Increase In Ros Level Was Observed
SW480
  IC50: 1360 nM
Staphylococcus aureus [31]
  MIC: 0.5 µg/mL (≈ 0.666 µM)
[32]
  selectivity ratio: 0.3
A549 [33]
  Activity: 3.67%
MDA-MB-231 [34]
  Activity: Active; Slight Increase In Mfi Is Observed
Lipid bilayer [35]
  Activity: inactive
Lipid bilayer [36]
  Activity: inactive
Staphylococcus aureus [37]
  MIC: 0.5 µg/mL (≈ 0.666 µM)
[38]
  selectivity ratio: 0.66
[39]
  selectivity ratio: 1.1
[40]
  selectivity ratio: 1.2
A549 [41]
  Activity: 84.56%
MDA-MB-231 [42]
  Activity: 76.94%
Staphylococcus aureus [43]
  MIC: 0.5 µg/mL (≈ 0.666 µM)
Escherichia coli
  MIC: > 256 µg/mL
